ChEMBL document CHEMBL4477208, “Discovery and Rational Design of Pteridin-7(8H)-one-Based Inhibitors Targeting FMS-like Tyrosine Kinase 3 (FLT3) and Its Mutants” (J Med Chem, 2016)
Activity calls are given as the source filed them. The rule behind the calls is not given here.

Assays:
[1] = test system: MV4-11; test: cells; conditions: Homo sapiens, MV4-11, 72 h
Description: Antiproliferative activity against human MV4-11 cells harboring FLT3-ITD mutant after 72 hrs by MTT assay

[2] = test system: K562; test: cells; conditions: Homo sapiens, K562, 72 h
Description: Antiproliferative activity against FLT3-deficient human K562 cells after 72 hrs by MTT assay

[3] = test system: WI-38; test: cells; conditions: Homo sapiens, WI-38, 72 h
Description: Antiproliferative activity against human WI38 cells after 72 hrs by SRB assay

[4] = molecular target: T1, Receptor-type tyrosine-protein kinase FLT3 (Homo sapiens, UniProt P36888)
T1 sequence (P36888 whole entry): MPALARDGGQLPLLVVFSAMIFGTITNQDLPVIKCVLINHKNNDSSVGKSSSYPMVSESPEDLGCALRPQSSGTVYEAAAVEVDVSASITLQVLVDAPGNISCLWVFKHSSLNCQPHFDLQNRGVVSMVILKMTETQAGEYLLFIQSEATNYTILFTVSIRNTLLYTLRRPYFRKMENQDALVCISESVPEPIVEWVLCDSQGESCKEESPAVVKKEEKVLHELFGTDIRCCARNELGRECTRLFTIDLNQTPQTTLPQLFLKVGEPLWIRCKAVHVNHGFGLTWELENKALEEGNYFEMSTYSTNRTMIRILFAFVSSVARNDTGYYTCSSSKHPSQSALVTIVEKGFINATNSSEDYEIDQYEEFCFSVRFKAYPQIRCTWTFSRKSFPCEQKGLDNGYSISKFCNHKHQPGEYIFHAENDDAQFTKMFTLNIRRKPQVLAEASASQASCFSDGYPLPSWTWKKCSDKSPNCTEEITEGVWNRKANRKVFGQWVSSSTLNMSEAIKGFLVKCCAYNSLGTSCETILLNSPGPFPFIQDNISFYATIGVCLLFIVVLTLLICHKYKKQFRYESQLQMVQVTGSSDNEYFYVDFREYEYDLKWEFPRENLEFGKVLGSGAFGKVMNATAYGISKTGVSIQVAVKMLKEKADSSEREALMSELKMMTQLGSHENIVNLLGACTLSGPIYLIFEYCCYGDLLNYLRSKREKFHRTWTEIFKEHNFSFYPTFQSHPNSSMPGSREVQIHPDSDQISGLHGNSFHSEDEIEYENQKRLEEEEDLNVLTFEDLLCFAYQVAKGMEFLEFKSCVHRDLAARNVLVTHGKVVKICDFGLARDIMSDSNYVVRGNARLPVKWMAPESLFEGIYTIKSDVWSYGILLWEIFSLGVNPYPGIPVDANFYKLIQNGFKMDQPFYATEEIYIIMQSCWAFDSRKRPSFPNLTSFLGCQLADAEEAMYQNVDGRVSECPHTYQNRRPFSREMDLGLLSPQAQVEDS
Description: Inhibition of human N-terminal GST-tagged FLT3 (564 to 993 residues) expressed in baculovirus expression system using peptide FAM-P2 as substrate incubated for 10 mins followed by substrate addition by mobility shift assay

[5] = test system: MV4-11; test: Induction of apoptosis in human MV4-11 cells at 1000 nM after 48 hrs by annexin V/propidium iodide staining based FACS analysis; format: functional, cell-based
[6] = test system: MV4-11; test: Cell cycle arrest in human MV4-11 cells at 1000 nM after 48 hrs by PI/RNase staining based FACS analysis; format: functional
[7] = molecular target: Receptor-type tyrosine-protein kinase FLT3 (Homo sapiens) (UniProt P36888); test: Inhibition of FLT3 (unknown origin) at 10 uM
[8] = molecular target: Receptor-type tyrosine-protein kinase FLT3 (Homo sapiens) (UniProt P36888); test: Inhibition of FLT3 (unknown origin) at 1 uM

IC50 [1] [µM] | IC50 [2] [µM] | IC50 [4] [µM] | inhibition [7] [%] | inhibition [8] [%] | SMILES | IC50 [3] [µM] | Activity [5] | Activity [6]
0.383 | > 10 | – | – | – | CN1CCN(c2ccc(Nc3ncc4ncc(=O)n(-c5cccc(N)c5)c4n3)cc2)CC1 | > 10 | – | –
3.81 | > 10 | 0.108 | – | – | C=CC(=O)Nc1ccc(-n2c(=O)cnc3cnc(Nc4ccc(OC)cc4)nc32)cc1 | > 10 | – | –
0.814 | > 10 | 0.153 | – | – | C=CC(=O)Nc1ccc(-n2c(=O)cnc3cnc(Nc4ccc(N5CCN(C)CC5)cc4OC)nc32)cc1 | > 10 | – | –
0.168 | > 10 | – | – | – | CN1CCN(c2ccc(Nc3ncc4ncc(=O)n(-c5ccc(N6CCNCC6)cc5)c4n3)cc2)CC1 | > 10 | – | –
1.95 | > 10 | – | – | – | COc1ccc(Nc2ncc3ncc(=O)n(-c4ccc(N)cc4)c3n2)cc1Cl | > 10 | – | –
2.61 | > 10 | 1.87 | – | – | C=CC(=O)Nc1cccc(-n2c(=O)cnc3cnc(Nc4ccc(OC)cc4)nc32)c1 | 8.71 | – | –
0.415 | > 10 | – | – | – | CC(=O)Nc1ccc(-n2c(=O)cnc3cnc(Nc4ccc(N5CCN(C)CC5)cc4)nc32)cc1 | > 10 | – | –
> 10 | > 10 | 1.53 | – | – | C=CC(=O)Nc1cccc(-n2c(=O)cnc3cnc(Nc4ccc(N5CCCC5)cc4)nc32)c1 | > 10 | – | –
0.093 | > 10 | – | – | – | COc1cc(Nc2ncc3ncc(=O)n(-c4ccc(N)cc4)c3n2)ccc1N1CCN(C)CC1 | > 10 | – | –
5.51 | > 10 | 2.92 | – | – | C=CC(=O)Nc1cccc(-n2c(=O)cnc3cnc(Nc4ccccc4)nc32)c1 | > 10 | – | –
6.89 | > 10 | 0.029 | – | – | COc1ccc(Nc2ncc3ncc(=O)n(-c4ccc(N)cc4)c3n2)cc1 | > 10 | – | –
7.38 | > 10 | 5.45 | – | – | C=CC(=O)Nc1cccc(-n2c(=O)cnc3cnc(Nc4ccc(NC(C)=O)cc4)nc32)c1 | > 10 | – | –
2.89 | > 10 | 1.32 | – | – | C=CC(=O)Nc1cccc(-n2c(=O)cnc3cnc(Nc4ccc(N5CCN(C)CC5)cc4OC)nc32)c1 | 8.24 | – | –
3.49 | > 10 | 0.034 | – | – | COc1ccc(Nc2ncc3ncc(=O)n(-c4cccc(N)c4)c3n2)cc1 | > 10 | – | –
2.17 | > 10 | 0.184 | – | – | COc1ccc(Nc2ncc3ncc(=O)n(-c4ccc(NC(=O)/C=C/CN(C)C)cc4)c3n2)cc1 | > 10 | – | –
0.302 | > 10 | – | – | – | COc1cc2c(N3CCN(C(=O)Nc4ccc(OC(C)C)cc4)CC3)ncnc2cc1OCCCN1CCCCC1 [TANDUTINIB] | > 10 | – | –
6.04 | > 10 | – | – | – | COc1ccc(Nc2ncc3ncc(=O)n(-c4ccc(N)cc4)c3n2)c(C)c1 | > 10 | – | –
2.94 | > 10 | – | – | – | COc1ccc(Nc2ncc3ncc(=O)n(-c4ccc(NS(C)(=O)=O)cc4)c3n2)cc1 | > 10 | – | –

IC50 [1] [µM] | IC50 [2] [µM] | IC50 [4] [µM] | inhibition [7] [%] | inhibition [8] [%] | SMILES | IC50 [3] [µM] | Activity [5] | Activity [6]
> 10 | > 10 | 0.165 | – | – | C=CC(=O)Nc1ccc(-n2c(=O)cnc3cnc(Nc4ccccc4)nc32)cc1 | > 10 | – | –
0.326 | 9.96 | – | – | – | CN1CCN(c2ccc(Nc3ncc4ncc(=O)n(-c5ccc(CN)cc5)c4n3)cc2)CC1 | > 10 | – | –
3.49 | > 10 | 0.173 | – | – | C=CC(=O)Nc1ccc(-n2c(=O)cnc3cnc(Nc4ccc(N5CCOCC5)cc4)nc32)cc1 | > 10 | – | –
1.42 | > 10 | – | – | – | CN1CCN(c2ccc(Nc3ncc4ncc(=O)n(-c5ccc(N)cc5)c4n3)cc2F)CC1 | > 10 | – | –
> 10 | > 10 | 0.384 | – | – | C=CC(=O)Nc1ccc(-n2c(=O)cnc3cnc(Nc4ccc(Cl)cc4)nc32)cc1 | > 10 | – | –
> 10 | > 10 | 1.14 | – | – | C=CC(=O)Nc1cccc(-n2c(=O)cnc3cnc(Nc4ccc(N5CCOCC5)cc4)nc32)c1 | > 10 | – | –
5.56 | > 10 | 1.06 | – | – | C=CC(=O)Nc1cccc(-n2c(=O)cnc3cnc(Nc4ccc(N(CC)CC)cc4)nc32)c1 | > 10 | – | –
0.297 | > 10 | – | – | – | CN1CCN(c2ccc(Nc3ncc4ncc(=O)n(-c5ccc(N)cc5)c4n3)cc2)CC1 | > 10 | Active | Active
> 10 | > 10 | – | – | – | C=CC(=O)Nc1cccc(-n2c(=O)cnc3cnc(Nc4ccc(CC(N)=O)cc4)nc32)c1 | > 10 | – | –
3.88 | > 10 | – | – | – | COc1ccc(Nc2ncc3ncc(=O)n(-c4ccc(NC(C)=O)cc4)c3n2)cc1 | > 10 | – | –
4.04 | > 10 | 3.59 | – | – | C=CC(=O)Nc1cccc(-n2c(=O)cnc3cnc(Nc4ccc(Cl)cc4)nc32)c1 | > 10 | – | –
0.792 | > 10 | 0.312 | 99 | 82 | C=CC(=O)Nc1cccc(-n2c(=O)cnc3cnc(Nc4ccc(N5CCN(C)CC5)cc4)nc32)c1 | > 10 | – | –
1.15 | > 10 | – | – | – | CN1CCN(c2ccc(Nc3ncc4ncc(=O)n(-c5ccc(NS(C)(=O)=O)cc5)c4n3)cc2)CC1 | > 10 | – | –
0.098 | > 10 | – | – | – | CN1CCN(c2ccc(Nc3ncc4ncc(=O)n(-c5ccc(N)cc5)c4n3)cc2Cl)CC1 | 3.49 | – | –
2.72 | > 10 | – | – | – | COc1ccc(Nc2ncc3ncc(=O)n(-c4cccc(NC(=O)/C=C/CN(C)C)c4)c3n2)cc1 | > 10 | – | –
> 10 | > 10 | 1.75 | – | – | C=CC(=O)Nc1cccc(-n2c(=O)cnc3cnc(Nc4ccc(N5CCCCC5)cc4)nc32)c1 | > 10 | – | –
0.835 | > 10 | 0.047 | – | – | C=CC(=O)Nc1ccc(-n2c(=O)cnc3cnc(Nc4ccc(N5CCN(C)CC5)cc4)nc32)cc1 | > 10 | – | –
